How the values were obtained:
Assay in all cases: Cancer spheroid cell death test (PrestoBlue)
Assay type in all cases: cell-based
[1] = tested on: human ovarian cancer cells (A1847); details: for anticancer effects (cell number versus increasing concentrations): compound alone
Method: (§1) Custom-made micromolds with 100 μm diameter wells were loaded with the cells (U.S. Pat. No. 8,735,154, incorporated by reference herein). The media were changed every day by partial replacement. Cell aggregates were allowed to form in the micromolds for 72 hours and then were transferred to a 100 mm non-treated tissue culture dishes for 3 additional days. The spheroids were passed through 70 μm and 100 μm cell strainers (#3431751 and #43152, Corning, Tewksbury, Mass.) and maintained in HEPES Balanced Salt Solution comprised of: 20 mM HEPES, 114 mM NaCl, 4.7 mM KCl, 1.2 mM KH2PO4, 1.16 mM MgSO4, 2.5 mM CaCl2, 25.5 mM NaHCO3 and 0.2% bovine serum albumin (fatty acid free), pH 7.2.
(§2) The cells were treated and tested as set forth in Example 1.

[2] = tested on: human prostate cancer cells (22rv1); details: compound alone
Method: as §1, §2

[3] = tested on: human lung cancer cells (H358); details: compound alone
Method: as §1
The lymphomas treatment methods used were identical to those described in Example 2 relative to the pediatric leukemia cells, whereas the lung cancer treatment method was the same as described in Example 1.

Structure (SMILES) | cell death, doxorubicin alone ([1]; low doses of doxorubicin alone (up to 0.158 μM)) | anticancer effects (cell number versus increasing concentrations) [1] | anticancer effects (cell number versus increasing concentrations) [2] | anticancer effects (cell number versus increasing concentrations) [3]
COc1cccc2c1C(=O)c1c(O)c3c(c(O)c1C2=O)C[C@@](O)(C(=O)CO)C[C@@H]3O[C@H]1C[C@H](N)[C@H](O)[C@H](C)O1 [doxorubicin, reference compound] | ineffective | – | – | –
CC1=NCCc2c1[nH]c1cc(O)ccc21.Cl [harmalol hydrochloride] | – | demonstrated anticancer effects | demonstrated anticancer effects | demonstrated anticancer effects
COc1ccc(C(=O)O)cc1O [isovanillic acid] | – | demonstrated anticancer effects | demonstrated anticancer effects | demonstrated anticancer effects
Cc1nccc2c1[nH]c1cc(O)ccc12.Cl [harmole hydrochloride] | – | demonstrated anticancer effects | demonstrated anticancer effects | demonstrated anticancer effects
COc1ccc2c3c([nH]c2c1)C(C)=NCC3 [harmaline] | – | demonstrated anticancer effects | demonstrated anticancer effects | demonstrated anticancer effects
COc1ccc(CO)cc1O [isovanillyl alcohol] | – | demonstrated anticancer effects | demonstrated anticancer effects | demonstrated anticancer effects
COc1cccc(C=O)c1O [O-vanillin] | – | demonstrated anticancer effects | demonstrated anticancer effects | demonstrated anticancer effects
COc1ccc2c3c([nH]c2c1)[C@@H](C)NCC3 [tetrahydro-harmine] | – | demonstrated anticancer effects | demonstrated anticancer effects | demonstrated anticancer effects
COc1cc(C=O)ccc1O [vanillin] | – | demonstrated anticancer effects | demonstrated anticancer effects | demonstrated anticancer effects
